Experiments:
[1] = test system: twitch response of the tibialis anterior muscle; assay: Neuromuscular block of the twitch response of the tibialis anterior muscle in anesthetized monkeys; type: in vivo, RHESUS MONKEY
[2] = test system: skeletal muscle relaxation; details: in vivo; cited from earlier work
[3] = time span from drug injection to full recovery of the twitch response, halothane, nitrous oxide and oxygen anesthesia, 4 animals per compound

Compound	Range of dupation of action (minutes from injection to full recovery) [1, 3] [min]	further results
COc1ccc(CC2c3cc(OC)c(OC)cc3CC[N+]2(C)CCCOC(=O)Cc2ccc(CC(=O)OCCC[N+]3(C)CCc4cc(OC)c(OC)cc4C3Cc3ccc(OC)c(OC)c3)cc2)cc1OC (stereo not shown) [KK100]	10 to 20	–
COc1cc2c3cc1Oc1cc(ccc1O)C[C@@H]1c4c(cc(OC)c(O)c4Oc4ccc(cc4)C[C@@H]3N(C)CC2)CC[N+]1(C)C.Cl.O.O.O.O.O.[Cl-] [l-Tube-curarine, d-tubocurarine chloride]	30 to 50	ED95 ([1]; dose range to produce 95 per cent block of the twitch response, muscle stimulated indirectly at 0,15 Hz via the sciatic nerve, halothane, nitrous oxide and oxygen anesthesia, 4 animals per compound): 0,2 - 0,4 MG/NG cation
C[N+](C)(C)CCOC(=O)CCC(=O)OCC[N+](C)(C)C [Succinyl-choline, succinylcholine chloride]	–	duration of action [2]: 5 to 15 min; ED95 ([1]; rhesus monkey, in vivo): 1,0 - 2,0 MG/NG cation; Range of dupation of action (minutes from injection to full recovery) ([1]; rhesus monkey, in vivo): 4 to 6 min
COc1cc2c(cc1OC)C(Cc1cc(OC)c(OC)c(OC)c1)[N+](C)(CCCOC(=O)C=Cc1ccc(C=CC(=O)OCCC[N+]3(C)CCc4cc(OC)c(OC)cc4C3Cc3cc(OC)c(OC)c(OC)c3)cc1)CC2 (stereo not drawn) [HH109, Bis-3-[N-methyl-l-(3,4,5-trimethoxybenzyl)] 6,7-dimethoxy-1,2,3,4-tetrahydroisoquinolinium propyl p-phenylene-3,3'-diacrylate dichloride]	20 to 30	–
COc1cc2c(cc1OC)C(Cc1cc(OC)c(OC)c(OC)c1)[N+](C)(CCCOC(=O)Cc1ccc(CC(=O)OCCC[N+]3(C)CCc4cc(OC)c(OC)cc4C3Cc3cc(OC)c(OC)c(OC)c3)cc1)CC2 (stereo not shown) [LL46, Bis-3-(N-methyl-1-(3,4,5-trimethoxybenzyl) 6,7-dimethoxy-1,2,3,4-tetrahydroisoquinolinium) propyl p-phenylene-3,3'-diacetate dichloride]	15 to 25	–
C[N+](C)(C)CCCCCCCCCC[N+](C)(C)C [decamethonium]	–	duration of action [2]: 20 to 40 min
COc1ccc(CC2c3cc(OC)c(OC)cc3CC[N+]2(C)CCCOC(=O)C=Cc2ccc(C=CC(=O)OCCC[N+]3(C)CCc4cc(OC)c(OC)cc4C3Cc3ccc(OC)c(OC)c3)cc2)cc1OC (stereo not shown) [GG195, Bis-3-[N-methyl-1-(3,4-dimethoxybenzyl) 6,7-dimethoxy-1,2,3,4-tetrahydroisoquinolinium] propyl p-phenylene-3,3'-diacrylate dichlorid]	15 to 30	–
